Patent US12642270B2, “Substituted thiophene carboxamides, thiophene carboxylic acids and derivatives thereof” (Bayer Aktiengesellschaft, priority 2019, dated 2026)
Blank lines part the entries; values can stand above or below the compound they belong to.

Assay: Log P by HPLC on reversed phase columns (EEC directive 79/831 Annex V.A8)
Type: physicochemical
Outline: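 Reversed-phase HPLC per EEC 79/831 Annex V.A8, LC-UV with 10→95% acetonitrile linear gradient; eluent [a] 0.1% formic acid (acidic), [b] 0.001 M ammonium acetate (neutral), [c] 0.1% phosphoric acid (acidic). Calibrated with C3–C16 straight-chain alkan-2-ones, linear interpolation of retention times; multiple values joined by "+".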

[1] = method [a]: LC-UV, acidic range, 0.1% formic acid in water and acetonitrile
[2] = LogP method [a], compounds of formula (I), Table 1.1
[3] = method marker [a] given with each value, Table 1.1, compounds of formula (I)
[4] = method [a], compounds of formula (I), Table 1.1

Compound: N#CCCOC(=O)CNC(=O)c1sc(Br)c(Br)c1F [1.0858]
- LogP (method [a]): 2.48^[a]

Compound: COC(=O)C(C)(C)NC(=O)c1sc(Br)c(Br)c1F [1.0540]
- LogP (method [a]): 3.34^[a]

Compound: CCOC(=O)c1sc(Cl)c(C#N)c1Br [II.093]
- LogP [1]: 3.46^[a]

Compound: COC(=O)CNC(=O)c1sc(F)c(Br)c1C [1.0316]
- LogP (method marked [a]): 2.31^[a]

Compound: COC(=O)C(NC(=O)c1sc(C#N)c(Cl)c1Cl)C1CC1 (stereo not shown) [1.0576]
- LogP (method [a]): 3.05^[a]

Compound: COC(=O)C(CC(F)F)NC(=O)c1cc(Cl)c(Br)s1 (stereo not shown) [1.0442]
- LogP [2]: 2.96^[a]

Compound: CC(C)(C)OC(=O)C1(NC(=O)c2sc(Br)c(Br)c2Cl)CC(F)(F)C1 [1.0757]
- LogP (method marked [a]): 4.89^[a]

Compound: CCOC(=O)C(Cc1c[nH]c2ccccc12)NC(=O)c1sc(Br)c(Br)c1F (stereo not shown) [1.0137]
- LogP (method [a]): 4.08^[a]

Compound: COC(=O)CNC(=S)c1sc(Br)c(Br)c1F [1.0538]
- LogP (method [a]): 3.74^[a]

Compound: CCOC(=O)C(Cc1ccccc1)NC(=O)c1sc(Cl)c(Br)c1C#N (stereo not shown) [1.0628]
- LogP (method [a]): 4.00^[a]

Compound: CCOC(=O)C(Cc1ccccc1)NC(=O)c1sc(Cl)c(C#N)c1Cl (stereo not shown) [1.0398]
- LogP (method marked [a]): 4.05^[a]

Compound: CCOC(=O)C(NC(=O)c1sc(Cl)c(Br)c1Br)C(C)C (stereo not shown) [1.0213]
- LogP (method [a]): 4.89^[a]

Compound: CC(C)C(C#N)NC(=O)c1sc(Cl)c(Cl)c1Br (stereo not shown) [1.1013]
- LogP [3]: 3.84^[a]

Compound: CCOC(=O)[C@H](CO)NC(=O)c1sc(C#N)c(Br)c1C [1.0846]
- LogP (method [a]): 2.11^[a]

Compound: COC(=O)C(NC(=O)c1sc(F)c(Br)c1Br)C1CC1 (stereo not shown) [1.0710]
- LogP (method marked [a]): 3.55^[a]

Compound: CC[C@H](C)[C@H](NC(=O)c1sc(Br)c(Cl)c1C)C(=O)OC [I.0322]
- LogP [1]: 4.25^[a]

Compound: CCOC(=O)C(CCSC)NC(=O)c1sc(Br)c(Br)c1F (stereo not shown) [1.0812]
- LogP (method [a]): 4.05^[a]

Compound: CCOC(=O)C(NC(=O)c1sc(Br)c(C#N)c1Br)C(C)C (stereo not shown) [1.0410]
- LogP [2]: 3.84^[a]

Compound: O=C(NC(C(=O)O)C1CC1)c1sc(Br)c(Br)c1Cl (stereo not shown) [1.0293]
- LogP (method marked [a]): 2.94^[a]

Compound: CCOC(=O)C(CSC)NC(=O)c1sc(Cl)c(Cl)c1C#N (stereo not shown) [1.0754]
- LogP (method marked [a]): 3.37^[a]

Compound: C#CCOC(=O)CNC(=O)c1sc(Br)c(Br)c1Cl [1.0959]
- LogP [3]: 3.20^[a]

Compound: O=C(NC1CCOC1=O)c1sc(Cl)c(Cl)c1C(F)F (stereo not shown) [I.0747]
- LogP [1]: 2.40^[a]

Compound: COC(=O)C(CC(=O)OC(C)(C)C)NC(=O)c1sc(Br)c(Br)c1Cl (stereo not shown) [1.0528]
- LogP [2]: 4.55^[a]

Compound: CCOC(=O)C(CCSC)NC(=O)c1sc(Br)c(Br)c1C(F)(F)F (stereo not shown) [1.0376]
- LogP (method marked [a]): 3.87^[a]

Compound: N#CCNC(=O)c1sc(Cl)c(Br)c1Br [1.0206]
- LogP (method [a]): 2.72^[a]

Compound: CCOC(=O)CNC(=O)c1sc(Cl)c(Br)c1C#N [1.0583]
- LogP (method [a]): 2.56^[a]

Compound: CCOC(=O)C(NC(=O)c1cc(Br)c(C#N)s1)C(C)C (stereo not shown) [1.0054]
- LogP [4]: 3.27^[a]

Compound: COC(=O)C[C@H](NC(=O)c1sc(Br)c(Br)c1Cl)C(=O)OC [1.0546]
- LogP (method [a]): 3.33^[a]

Compound: CCOC(=O)C(CC(N)=O)NC(=O)c1sc(Br)c(Br)c1F (stereo not shown) [1.0048]
- LogP [4]: 2.17^[a]

Compound: COC(=O)CNC(=O)c1sc(Br)c(C#N)c1Br [1.0406]
- LogP [2]: 2.22^[a]

Compound: CCOC(=O)C(NC(=O)c1cc(C)c(Cl)s1)C(C)C (racemic) [1.0002]
- LogP [4]: 3.48^[a]

Compound: N#CCNC(=O)c1sc(Br)c(Cl)c1Br [1.0837]
- LogP (method [a]): 2.75^[a]

Compound: COC(=O)[C@H](CCC(N)=O)NC(=O)c1sc(Br)c(Br)c1F [1.1048]
- LogP [3]: 2.05^[a]

Compound: O=C(CNC(=O)c1sc(Br)c(Br)c1F)SCc1ccccc1 [1.0015]
- LogP [4]: 4.15^[a]

Compound: CCOC(=O)C(CC(C)C)NC(=O)c1sc(I)c(Br)c1C (stereo not shown) [1.0102]
- LogP [4]: 4.56^[a]

Compound: CCOC(=O)C(C)NC(=O)c1sc(Br)c(Br)c1F (stereo not shown) [1.0133]
- LogP (method [a]): 3.41^[a]

Compound: O=C(NC(C(=O)O)C1CC1)c1sc(Br)c(Br)c1I (stereo not shown) [1.0292]
- LogP (method marked [a]): 2.97^[a]

Compound: CCOC(=O)CCNC(=O)c1sc(C)c(Br)c1F [1.0481]
- LogP [2]: 2.78^[a]

Compound: N#CCNC(=O)c1sc(Br)c(C(F)F)c1Br [1.0509]
- LogP [2]: 2.37^[a]

Compound: CCOC(=O)C(C)NC(=O)c1sc(C#N)c(Br)c1C (stereo not shown) [1.0823]
- LogP (method [a]): 2.80^[a]

Compound: N#Cc1sc(C(=O)O)c(Br)c1Cl [II.097]
- LogP [1]: 1.64^[a]

Compound: CCOC(=O)C(CCSC)NC(=O)c1sc(F)c(Cl)c1C (stereo not shown) [1.0300]
- LogP (method marked [a]): 3.64^[a]

Compound: N#CCNC(=O)c1sc(Cl)c(Br)c1C#N [1.0633]
- LogP (method [a]): 2.07^[a]

Compound: CCOC(=O)C(CSC(C)=O)NC(=O)c1sc(Cl)c(Cl)c1Br (stereo not shown) [1.0547]
- LogP (method [a]): 3.46^[a]

Compound: Cc1c(C(=O)NCC(N)=O)sc(C#N)c1Br [1.0915]
- LogP (method [a]): 1.38^[a]

Compound: CCOC(=O)C(Cc1ccccc1)NC(=O)c1sc(Cl)c(Br)c1C (stereo not shown) [1.0071]
- LogP [4]: 4.51^[a]

Compound: O=C(O)c1sc(Br)c(Cl)c1F [II.009]
- LogP [1]: 2.18^[a]

Compound: COC(=O)[C@H](CCCNC(=N)N)NC(=O)c1sc(Br)c(Cl)c1C [1.0131]
- LogP [4]: 1.71^[a]

Compound: CCOC(=O)C(CC(C)C)NC(=O)c1sc(Br)c(Br)c1F (stereo not shown) [1.0062]
- LogP [4]: 4.67^[a]

Compound: CC(C)OC(=O)C(NC(=O)c1sc(Br)c(Br)c1Cl)C1CC1 (stereo not shown) [1.0886]
- LogP (method [a]): 4.89^[a]

Compound: COC(=O)C(C)(C)NC(=O)c1sc(Cl)c(Br)c1C#N [1.0608]
- LogP (method [a]): 2.77^[a]

Continued, values first:

- LogP (method [a]): 3.28^[a]
Compound: CCCOC(=O)C1(NC(=O)c2cc(Cl)c(Br)s2)CC1 [1.0598]

- LogP (method [a]): 2.09^[a]
Compound: COC(=O)C1(NC(=O)c2sc(Br)c(Br)c2F)CC1 [1.0539]

- LogP [3]: 3.23^[a]
Compound: CCOC(=O)C1(NC(=O)c2sc(C#N)c(Cl)c2Cl)CSC1 [1.1041]

- LogP (method marked [a]): 3.70^[a]
Compound: CCOC(=O)C1(NC(=O)c2sc(Cl)c(Cl)c2F)CCC1 [1.0347]

- LogP (method [a]): 2.94^[a]
Compound: COC(=O)C1(NC(=O)c2sc(C#N)c(Cl)c2Cl)CCC1 [1.0578]

- LogP [3]: 3.81^[a]
Compound: CCOC(=O)CN(C(=O)c1sc(Cl)c(Cl)c1Br)C1CC1 [1.0937]

- LogP [3]: 3.37^[a]
Compound: N#CC1(NC(=O)c2sc(Cl)c(Cl)c2Br)CCC1 [1.1014]

- LogP [1]: 4.62^[a]
Compound: CCOC(=O)c1sc(Cl)c(Br)c1Cl [II.089]

- LogP (method [a]): 4.93^[a]
Compound: O=C(NC1(C(=O)OC2CCC2)CCC1)c1sc(Cl)c(Cl)c1Br [1.0889]

- LogP (method marked [a]): 2.73^[a]
Compound: C#CCOC(=O)C1(NC(=O)c2sc(C#N)c(Cl)c2Cl)CC1 [1.0784]

- LogP [2]: 4.13^[a]
Compound: CCOC(=O)C(NC(=O)c1sc(Cl)c(Cl)c1C(F)F)C(C)C (stereo not shown) [1.0418]

- LogP (method [a]): 3.98^[a]
Compound: CCCOC(=O)C1(NC(=O)c2sc(Cl)c(Br)c2Cl)CC1 [1.0596]

- LogP (method marked [a]): 4.33^[a]
Compound: Cc1c(C(=O)NC2(C(=O)OC3CCC3)CCC2)sc(Br)c1Cl [1.0705]

- LogP (method [a]): 3.15^[a]
Compound: CCCOC(=O)C1(NC(=O)c2sc(C#N)c(Cl)c2Cl)CC1 [1.0580]

- LogP (method marked [a]): 3.97^[a]
Compound: CCOC(=O)C1(NC(=O)c2sc(Br)c(Br)c2Cl)CSC1 [1.0728]

- LogP (method [a]): 4.20^[a]
Compound: O=C(NC1(C(=O)OC2CCC2)CC1)c1sc(Cl)c(Br)c1Br [1.0594]

- LogP (method [a]): 3.28^[a]
Compound: CCOC(=O)CNC(=O)c1sc(Br)c(Cl)c1Cl [1.0195]

- LogP (method [a]): 2.41^[a]
Compound: O=C(NC1(C(=O)O)CC1)c1sc(Cl)c(Br)c1Br [1.0265]

- LogP [3]: 2.95^[a]
Compound: O=C(NC1(C(=O)O)CCC1)c1sc(Cl)c(Cl)c1Br [1.1017]

- LogP [3]: 3.55^[a]
Compound: CCOC(=O)C1(NC(=O)c2sc(Cl)c(Cl)c2C(F)F)CSC1 [1.1059]

- LogP [3]: 3.05^[a]
Compound: CCOC(=O)C1(NC(=O)c2sc(Cl)c(Cl)c2C#N)CSC1 [1.1054]

- LogP (method [a]): 3.59^[a]
Compound: CCOC(=O)C1(NC(=O)c2sc(Br)c(Br)c2F)CSC1 [1.0795]
